Results: patent publication US11180462B2, “Microbiocidal oxadiazole derivatives” (SYNGENTA PARTICIPATIONS AG, priority 2015, dated 2021)

What was measured:
[1] = test system: Glomerella lagenarium (Colletotrichum lagenarium); assay: Fungicidal activity against Glomerella lagenarium (Colletotrichum lagenarium) liquid culture / cucumber / preventative (anthracnose); format: cell-based; conditions: Colletotrichum orbiculare; 20 ppm in the applied formulation; liquid culture (PDB), growth inhibition measured photometrically after 3 to 4 days; compared to untreated control; read-out: disease control
Procedure, shortened: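 Photometric read-out of fungal growth after 2–7 days, expressed as percent antifungal activity versus untreated check. Cryo-stored conidia in PDB; compound at 20 ppm; dark, 24 °C, 96% RH.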

[2] = test system: Puccinia recondita f. Sp. Tritici; assay: Fungicidal activity against Puccinia recondita f. sp. tritici / wheat / leaf disc preventative (brown rust); format: in vivo; conditions: foliar, 200 ppm in the applied formulation, wheat leaf segments, preventative, compared to untreated control leaf disks, read-out: disease control
Procedure, shortened: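 Preventative leaf-segment test, wheat cv. Kanzler on water agar. Spray compound at 200 ppm, inoculate with spores 1 day later; 19° C., 75% rh, 12/12 h light. Read-out: % disease control vs untreated, 7 to 9 days after application.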

[3] = test system: Puccinia recondita f. Sp. Tritici; assay: Fungicidal activity against Puccinia recondita f. sp. tritici / wheat / leaf disc curative (brown rust); format: in vivo; conditions: foliar, 24 h, 200 ppm in the applied formulation, wheat leaf segments, curative (applied 1 day after inoculation), compared to untreated control leaf disks, read-out: disease control
Procedure, shortened: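 Inoculate cv. Kanzler segments on agar; hold dark, 19° C, 75% RH. Spray diluted formulated compound at day 1. Incubate 12 h light/12 h dark, same temperature and humidity; score % control vs untreated 6–8 days later.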

Phakopsora Pachyrhizi = assay: Fungicidal activity against Phakopsora pachyrhizi / soybean / leaf disc preventative (Asian soybean rust); format: in vivo; conditions: foliar, 200 ppm in the applied formulation, soybean leaf disks, compared to untreated control leaf disks, read-out: disease control
Procedure, shortened: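 Preventative soybean leaf-disc test: discs on water agar sprayed with diluted formulated compound, inoculated one day later with spores on the lower surface. Held 24–36 h dark at 20°C, 75% rh, then 12 h light/day; percent disease control versus untreated discs scored 12–14 days after application.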

O=C(C1CC1(F)F)N(O)Cc1ccc(-c2noc(C(F)(F)F)n2)cc1 (centres unmarked) [Compound 1.753, 2,2-difluoroN-hydroxy-N-[[4-[5-(trifluoromethyl)-1,2,4-oxadiazol-3-yl]phenyl]methyl]-cyclopropane-carboxamide]
≥ 80%: inhibition of growth at 20 ppm [1] | pest or weed control at 200 ppm [2] | pest or weed control at 200 ppm [3] | pest or weed control at 200 ppm (Phakopsora Pachyrhizi)

CN(Cc1ccc(-c2noc(C(F)(F)F)n2)cc1)C(=O)C1CCCC1 [Compound 1.515, N-methyl-N-[[4-[5-(trifluoromethyl)-1,2,4-oxadiazol-3-yl]phenyl]methyl]-cyclopentane-carboxamide]
≥ 80%: inhibition of growth at 20 ppm [1] | pest or weed control at 200 ppm [2] | pest or weed control at 200 ppm [3] | pest or weed control at 200 ppm (Phakopsora Pachyrhizi)

CON(Cc1c(F)cc(-c2noc(C(F)(F)F)n2)cc1F)C(=O)C1CCCO1 (centres unmarked) [Compound 1.597, N-[[2,6-difluoro-4-[5-(trifluoromethyl)-1,2,4-oxadiazol-3-yl]phenyl]methyl)-N-methoxy-tetrahydrofuran-2-carboxamide]
≥ 80%: inhibition of growth at 20 ppm [1] | pest or weed control at 200 ppm [2] | pest or weed control at 200 ppm [3] | pest or weed control at 200 ppm (Phakopsora Pachyrhizi)

COCCN(Cc1ccc(-c2noc(C(F)(F)F)n2)cc1)C(=O)C1CC1 [Compound 1.363, N-(2-methoxyethyl)-N-[[4-[5-(trifluoromethyl)-1,2,4-oxadiazol-3-yl]phenyl]methyl]-cyclopropane-carboxamide]
≥ 80%: inhibition of growth at 20 ppm [1] | pest or weed control at 200 ppm [2] | pest or weed control at 200 ppm [3] | pest or weed control at 200 ppm (Phakopsora Pachyrhizi)

C#CCN(Cc1ccc(-c2noc(C(F)(F)F)n2)cc1)C(=O)CC1CC1 [Compound 1.167, 2-cyclopropyl-N-prop-2-ynyl-N-[[4-[5-(trifluoromethyl)-1,2,4-oxadiazol-3-yl]phenyl]methyl]-acetamide]
≥ 80%: inhibition of growth at 20 ppm [1] | pest or weed control at 200 ppm [2] | pest or weed control at 200 ppm [3] | pest or weed control at 200 ppm (Phakopsora Pachyrhizi)

CCC(C)C(=O)N(Cc1ccc(-c2noc(C(F)(F)F)n2)cc1)OC (centres unmarked) [Compound 1.48, N-methoxy-2-methyl-N-[[4-[5-(trifluoromethyl)-1,2,4-oxadiazol-3-yl]phenyl]methyl]-butanamide]
≥ 80%: inhibition of growth at 20 ppm [1] | pest or weed control at 200 ppm [2] | pest or weed control at 200 ppm [3] | pest or weed control at 200 ppm (Phakopsora Pachyrhizi)

CCCCCC(=O)N(Cc1ccc(-c2noc(C(F)(F)F)n2)cc1)OC [Compound 1.20, N-methoxy-N-[[4-[5-(trifluoromethyl)-1,2,4-oxadiazol-3-yl]phenyl]methyl]-hexanamide]
≥ 80%: inhibition of growth at 20 ppm [1] | pest or weed control at 200 ppm [2] | pest or weed control at 200 ppm [3] | pest or weed control at 200 ppm (Phakopsora Pachyrhizi)

CCON(Cc1ccc(-c2noc(C(F)(F)F)n2)cc1)C(=O)N(C)C [Compound 3.28, 1-ethoxy-3,3-dimethyl-1-[[4-[5-(trifluoromethyl)-1,2,4-oxadiazol-3-yl]phenyl]methyl]urea]
≥ 80%: inhibition of growth at 20 ppm [1] | pest or weed control at 200 ppm [2] | pest or weed control at 200 ppm [3] | pest or weed control at 200 ppm (Phakopsora Pachyrhizi)

CCC(C)N(Cc1ccc(-c2noc(C(F)(F)F)n2)cc1)C(=O)COC (centres unmarked) [Compound 1.372, 2-methoxy-N-sec-bulyl-N-[[4-[5-(trifluoromethyl)-1,2,4-oxadiazol-3-yl]phenyl]methyl]-acetamide]
≥ 80%: inhibition of growth at 20 ppm [1] | pest or weed control at 200 ppm [2] | pest or weed control at 200 ppm [3] | pest or weed control at 200 ppm (Phakopsora Pachyrhizi)

CC1CC1C(=O)N(O)Cc1ccc(-c2noc(C(F)(F)F)n2)cc1 (centres unmarked) [Compound 1.763, N-hydroxy-2-methyl-N-[[4-[5-(trifluoromethyl)-1,2,4-oxadiazol-3-yl]phenyl]methyl]-cyclopropane-carboxamide]
≥ 80%: inhibition of growth at 20 ppm [1] | pest or weed control at 200 ppm [2] | pest or weed control at 200 ppm [3] | pest or weed control at 200 ppm (Phakopsora Pachyrhizi)

CCON(Cc1ccc(-c2noc(C(F)(F)F)n2)cc1)C(C)=O [Compound 1.631, N-ethoxy-N-[[4-[5-(trifluoromethyl)-1,2,4-oxadiazol-3-yl]phenyl]methyl]-acetamide]
≥ 80%: inhibition of growth at 20 ppm [1] | pest or weed control at 200 ppm [2] | pest or weed control at 200 ppm [3] | pest or weed control at 200 ppm (Phakopsora Pachyrhizi)

CC1CC1C(=O)N(CCO)Cc1ccc(-c2noc(C(F)(F)F)n2)cc1 (centres unmarked) [Compound 1.717, N-(2-hydroxyethyl)-2-methyl-N-[[4-[5-(trifluoromethyl)-1,2,4-oxadiazol-3-yl]phenyl]methyl]-cyclopropane-carboxamide]
≥ 80%: inhibition of growth at 20 ppm [1] | pest or weed control at 200 ppm [2] | pest or weed control at 200 ppm [3] | pest or weed control at 200 ppm (Phakopsora Pachyrhizi)

CCC(=O)N(Cc1ccc(-c2noc(C(F)(F)F)n2)cc1)C1CC1 [Compound 1.119, N-cyclopropyl-N-[[4-[5-(trifluoromethyl)-1,2,4-oxadiazol-3-yl]phenyl]methyl]-propanamide]
≥ 80%: inhibition of growth at 20 ppm [1] | pest or weed control at 200 ppm [2] | pest or weed control at 200 ppm [3] | pest or weed control at 200 ppm (Phakopsora Pachyrhizi)

CC(=O)CC(C)C(=O)N(Cc1ccc(-c2noc(C(F)(F)F)n2)cc1)C1CC1 (centres unmarked) [Compound 1.95, N-cyclopropyl-2-methyl-4-oxo-N-[[4-[5-(trifluoromethyl)-1,2,4-oxadiazol-3-yl]phenyl]methyl]-pentanamide]
≥ 80%: inhibition of growth at 20 ppm [1] | pest or weed control at 200 ppm [2] | pest or weed control at 200 ppm [3] | pest or weed control at 200 ppm (Phakopsora Pachyrhizi)

COC(C)C(=O)N(O)Cc1ccc(-c2noc(C(F)(F)F)n2)cc1 (centres unmarked) [Compound 1.772, N-hydroxy-2-methoxy-N-[[4-[5-(trifluoromethyl)-1,2,4-oxadiazol-3-yl]phenyl]methyl]-propanamide]
≥ 80%: inhibition of growth at 20 ppm [1] | pest or weed control at 200 ppm [2] | pest or weed control at 200 ppm [3] | pest or weed control at 200 ppm (Phakopsora Pachyrhizi)

C#CCCC(=O)N(Cc1ccc(-c2noc(C(F)(F)F)n2)cc1)OC [Compound 1.11, N-methoxy-N-[[4-[5-(trifluoromethyl)-1,2,4-oxadiazol-3-yl]phenyl]methyl]-pent-4-ynamide]
≥ 80%: inhibition of growth at 20 ppm [1] | pest or weed control at 200 ppm [2] | pest or weed control at 200 ppm [3] | pest or weed control at 200 ppm (Phakopsora Pachyrhizi)

O=C(CC1CC1)ON(Cc1ccc(-c2noc(C(F)(F)F)n2)cc1)C(=O)CC1CC1 [Compound 1.775, [(2-cyclo-propylacetyl)-[[4-[5-(trifluoromethyl)-1,2,4-oxadiazol-3-yl]phenyl]methyl]-amino] 2-cyclopropylacetale]
≥ 80%: inhibition of growth at 20 ppm [1] | pest or weed control at 200 ppm [2] | pest or weed control at 200 ppm [3] | pest or weed control at 200 ppm (Phakopsora Pachyrhizi)

CON(Cc1ccc(-c2noc(C(F)(F)F)n2)cc1)C(=O)Nc1ccccc1 [Compound 3.8, 1-methoxy-3-phenyl-1-[[4-[5-(trifluoromethyl)-1,2,4-oxadiazol-3-yl]phenyl]methyl]urea]
≥ 80%: inhibition of growth at 20 ppm [1] | pest or weed control at 200 ppm [2] | pest or weed control at 200 ppm [3] | pest or weed control at 200 ppm (Phakopsora Pachyrhizi)

CCCN(Cc1ccc(-c2noc(C(F)(F)F)n2)cc1)C(=O)CC#N [Compound 1.664, 2-cyano-N-propyl-N-[[4-[5-(trifluoromethyl)-1,2,4-oxadiazol-3-yl]phenyl]methyl]-acetamide]
≥ 80%: inhibition of growth at 20 ppm [1] | pest or weed control at 200 ppm [2] | pest or weed control at 200 ppm [3] | pest or weed control at 200 ppm (Phakopsora Pachyrhizi)

CC(C)N(Cc1ccc(-c2noc(C(F)(F)F)n2)cc1)C(=O)C1CC1 [Compound 1.599, N-isopropyl-N-[[4-[5-(trifluoromethyl)-1,2,4-oxadiazol-3-yl]phenyl]methyl]-cyclopropane-carboxamide]
≥ 80%: inhibition of growth at 20 ppm [1] | pest or weed control at 200 ppm [2] | pest or weed control at 200 ppm [3] | pest or weed control at 200 ppm (Phakopsora Pachyrhizi)
